Data set [1] is described as follows: Determination of log P values by HPLC on a reverse phase column (C18), EEC-Directive 79/831 Annex V.A8 (Methods A, B, C). The format is physicochemical. As to conditions: for chromatographic logP: reverse phase C18 HPLC column. The method, then: (§1) Note on the determination of the log P values and mass detection: The stated log P values were determined in accordance with EEC-Directive 79/831 Annex V.A8 by HPLC (High Performance Liquid Chromatography) on a reverse phase column (C18). Agilent 1100 LC system; 50*4.6 Zorbax Eclipse Plus C18 1.8 micron; eluent A: acetonitrile (0.1% formic acid); eluent B: water (0.09% formic acid); linear gradient from 10% acetonitrile to 95% acetonitrile in 4.25 mins, then 95% acetonitrile for a further 1.25 mins; oven temperature 55° C.; flow rate: 2.0 mL/min. The mass detection was effected with an Agilend MSD system.
as §1, with “HP1100;” for “Agilent 1100 LC system;”, “(0.08%” for “(0.09%”, “5%” for “10%”, “1.70 min,” for “4.25 mins,”, “1.00 min;” for “1.25 mins;”, “the Micronass ZQ2000 mass detector from Waters.” for “an Agilend MSD system.”
Note on the determination of the log P values and mass detection: The stated log P values were determined in accordance with EEC-Directive 79/831 Annex V.A8 by UPLC (Ultra Performance Liquid Chromatography) on a reverse phase column (C18). HP1100; 50*2.1 Zorbax Eclipse Plus C18 1.8 micron; eluent A: acetonitrile (0.09% formic acid); eluent B: water (0.1% formic acid); linear gradient from 10% A to 95% A in 3.25 min; oven temperature 40° C.; flow rate: 0.8 mL/min. The mass detection was effected with the LCT Premier or SQD mass detector from Waters.

For a further data set, the system named is Sphaerotheca fuliginea. Briefly: Example A: Sphaerotheca test (cucumber) / preventive. The format is in vivo.
The test system of another data set is Leptosphaeria nodorum. The experiment in a line: Example C: Leptosphaeria test (wheat) / preventive. The format is in vivo. As to conditions: in vivo.
The test system of the next data set is Pyrenophora teres. Briefly: Example D: Pyrenophora test (barley) / preventive. The format is in vivo.
Another data set deals with Puccinia recondita. The experiment in a line: Example E: Puccinia test (wheat) / preventive. The format is in vivo. As to conditions: in vivo.
For the next data set, the system named is Pyricularia oryzae. The class given is in vivo.
For a further data set, the system named is Uromyces appendiculatus. Briefly: Example B: Uromyces test (beans) / preventive. The class given is in vivo. Particulars: in vivo.
Where [2] appears, read: Method B (HPLC, reverse phase C18).
The mark [3] stands for this setting: Method C (HPLC, reverse phase C18).
Where [4] appears, read: Method C (HPLC, reverse phase C18), read-out: LogP.
Setting [5] is: pH 2.7, values in the synthesis examples, HPLC, reverse phase C18, read-out: log P (pH 2.7).
Setting [6] is: 500 ppm of active ingredient, barley, preventive spray, evaluated 7-9 days after inoculation.

Experimental findings from US9023844B2, “Heterocyclylpyri (mi) dinylpyrazole as fungicidals” (Bayer Intellectual Property GmbH, priority 2011, dated 2015) are described below.

Read-outs that look alike come from different tables or passages of the source.

The term LogP denotes the decadic logarithm of the partition coefficient of the neutral form, usually between octanol and water. High values mean higher lipophilicity, low ones lower lipophilicity. `CSCC(=O)Nc1cc(-c2c(-c3ccc(F)cc3)nn3c2OCCC3)ccn1` [Example 30]: the log partition coefficient (LogP) in data set [1] (setting [2]) amounted to 1.72. In addition, the efficacy in the data set on Sphaerotheca fuliginea (in vivo) was 98%; in the data set on Leptosphaeria nodorum, 70%; in the data set on Pyrenophora teres (in vivo), 95%; with Puccinia recondita it was 100%; with Pyricularia oryzae (in vivo), 94%.

In data set [1] (setting [2]), `CC(C(=O)Nc1cc(-c2c(-c3ccc(F)cc3)nn3c2OCCC3)ccn1)c1ccc(F)cc1` (stereo not drawn) [Example 32] came in with a log partition coefficient (LogP) of 2.48. Also, the efficacy in the data set with Uromyces appendiculatus was 92%; in the data set with Pyrenophora teres (in vivo), 90%; in the data set on Puccinia recondita, 100%; in the data set with Pyricularia oryzae (in vivo), 94%.

On to `CC(C)=CCC(=O)Nc1cc(-c2c(-c3ccc(F)cc3F)nn3c2OCCC3)ccn1` [Example 48], for which the LogP in data set [1] (setting [2]) worked out at 2.1. Moreover, the efficacy in the data set on Uromyces appendiculatus stood at 86%; in the data set on Pyrenophora teres (in vivo), 70%; with Puccinia recondita, 95%; in the data set with Pyricularia oryzae (in vivo), 78%.

`CCOC(=O)Nc1cc(-c2c(-c3ccc(F)cc3)nn3c2OCCC3)ccn1` [Example 23] yielded a LogP in data set [1] (setting [2]) of 1.66. For the same compound, the efficacy with Uromyces appendiculatus came out at 94%; in the data set on Pyrenophora teres (in vivo) it was 95%; in the data set with Puccinia recondita, 95%; in the data set with Pyricularia oryzae (in vivo) it was 94%.

Compound `C[C@H](O)C(=O)Nc1cc(-c2c(-c3ccc(F)cc3F)nn3c2OCCC3)ccn1` [Example 41] came in with a LogP in data set [1] (setting [2]) of 1.34. In addition, the efficacy in the data set on Uromyces appendiculatus was 94%; in the data set on Pyrenophora teres (in vivo), 90%; in the data set with Puccinia recondita, 95%; in the data set on Pyricularia oryzae (in vivo), 94%.

In data set [1] (setting [2]), `CC(C)(C)CC(=O)Nc1cc(-c2c(-c3ccccc3)nn3c2OCCC3)ccn1` [Example 20] yielded a LogP of 1.88. The efficacy was determined as 100% in the data set on Sphaerotheca fuliginea (in vivo); 97% with Uromyces appendiculatus; 95% with Leptosphaeria nodorum; 95% with Pyrenophora teres (in vivo); 100% in the data set on Puccinia recondita; 94% in the data set on Pyricularia oryzae (in vivo).

In data set [1] (setting [3]), `CCC(=O)Nc1cc(-c2c(-c3ccsc3)nn3c2OC[Si](C)(C)C3)ccn1` [Example 100] returned a LogP of 1.88. For the same compound, the efficacy in the data set with Leptosphaeria nodorum is reported as 80%; in the data set on Pyrenophora teres (in vivo), 95%; with Pyricularia oryzae (in vivo), 70%.

Regarding `CC(=O)Nc1cc(-c2c(-c3ccsc3)nn3c2OC[Si](C)(C)C3)ccn1` [Example 96], the LogP in data set [1] (setting [3]) is reported as 1.62. The efficacy in the data set on Pyrenophora teres (in vivo) was found to be 95%; in the data set on Pyricularia oryzae (in vivo), 70%.

Compound `CC(C)=CCC(=O)Nc1cc(-c2c(-c3ccc(F)cc3)nn3c2OCCC3)ccn1` [Example 33] showed a LogP in data set [1] (setting [2]) of 2.07. The efficacy in the data set with Uromyces appendiculatus worked out at 89%; in the data set with Pyrenophora teres (in vivo) it was 90%; in the data set on Puccinia recondita, 100%; in the data set on Pyricularia oryzae (in vivo) it was 94%.

Regarding `CC(C)=CCC(=O)Nc1cc(-c2c(-c3ccccc3)nn3c2OCCC3)ccn1` [Example 19], in data set [1] (setting [2]), the lipophilicity (LogP) is listed as 1.91. In addition, the efficacy with Sphaerotheca fuliginea (in vivo) came out at 90%; in the data set on Uromyces appendiculatus, 92%; in the data set on Pyrenophora teres (in vivo), 95%; in the data set with Puccinia recondita it was 95%; in the data set on Pyricularia oryzae (in vivo), 94%.

Regarding `CC(C)(C)CC(=O)Nc1cc(-c2c(-c3ccc(F)cc3F)nn3c2OCCC3)ccn1` [Example 49], the LogP in data set [1] (setting [2]) is 2.1. Moreover, the efficacy is 93% in the data set with Sphaerotheca fuliginea (in vivo); 94% in the data set on Uromyces appendiculatus; 90% with Leptosphaeria nodorum; 95% with Pyrenophora teres (in vivo); 95% in the data set with Puccinia recondita; 94% in the data set on Pyricularia oryzae (in vivo).

In the case of `CC(=O)N(C(C)=O)c1cc(-c2c(-c3ccccc3)nn3cccnc23)ccn1` [Example 56, N-Acetyl-N-[4-(2-phenylpyrazolo[1,5-a]pyrimidin-3-yl)pyridin-2-yl]acetamide], the chromatographic logP in data set [1] (setting [4]) and in data set [1] (setting [5]) was 2.13 each time. In addition, the efficacy with Sphaerotheca fuliginea (500 ppm of active ingredient, cucumber, preventive spray, evaluated 7 days after inoculation) is listed as 80%; with Pyrenophora teres (setting [6]), 95%.

Consider `CC(=O)Nc1cc(-c2c(-c3ccc(F)cc3)nn3c2NCCC3)ccn1` [Example 59, N-{4-[2-(4-Fluorophenyl)-4,5,6,7-tetrahydropyrazolo[1,5-a]pyrimidin-3-yl]pyridin-2-yl}acetamide], for which the chromatographic logP in data set [1] (setting [4]) and in data set [1] (setting [5]) was 1.48 in each case. Further, the efficacy is recorded as 80% with Pyrenophora teres (setting [6]) and 70% in the data set with Pyricularia oryzae (500 ppm of active ingredient, rice, preventive spray, evaluated 7 days after inoculation).

`O=C(Nc1cc(-c2c(-c3ccccc3)nn3c2OCCC3)ccn1)C1(Cl)CC1` [Example 21] showed a LogP in data set [1] (setting [2]) of 2.62. The efficacy is 93% in the data set on Sphaerotheca fuliginea (in vivo); 70% in the data set on Leptosphaeria nodorum; 100% in the data set with Pyrenophora teres (in vivo); 89% in the data set with Puccinia recondita; 89% in the data set with Pyricularia oryzae (in vivo).

As for `CSCC(=O)Nc1cc(-c2c(-c3ccccc3)nn3c2OCCC3)ccn1` [Example 16], in data set [1] (setting [2]), the LogP is listed as 1.54. For the same compound, the efficacy in the data set on Sphaerotheca fuliginea (in vivo) is recorded as 93%; in the data set on Uromyces appendiculatus it was 92%; in the data set on Pyrenophora teres (in vivo), 95%; with Puccinia recondita, 95%; in the data set with Pyricularia oryzae (in vivo), 94%.

`C[C@H](O)C(=O)Nc1cc(-c2c(-c3ccc(F)cc3)nn3c2OCCC3)ccn1` [Example 26] gave a LogP in data set [1] (setting [2]) of 1.31. The efficacy in the data set with Uromyces appendiculatus is recorded as 72%; in the data set on Leptosphaeria nodorum it was 70%; in the data set on Pyrenophora teres (in vivo), 100%; in the data set with Puccinia recondita it was 100%; in the data set with Pyricularia oryzae (in vivo), 94%.

For the compound `O=C(CC1CC1)Nc1cc(-c2c(-c3ccc(F)cc3F)nn3c2OCCC3)ccn1` [Example 42], the LogP in data set [1] (setting [2]) is on record as 1.72. For the same compound, the efficacy turned out to be 94% in the data set with Uromyces appendiculatus; 70% in the data set on Leptosphaeria nodorum; 100% in the data set with Pyrenophora teres (in vivo); 95% in the data set with Puccinia recondita; 94% in the data set on Pyricularia oryzae (in vivo).

Compound `O=C(CCc1ccccc1)Nc1cc(-c2c(-c3ccc(F)cc3F)nn3c2OCCC3)ccn1` [Example 44] yielded a LogP in data set [1] (setting [2]) of 2.23. Also, the efficacy was found to be 94% in the data set with Uromyces appendiculatus, 95% in the data set on Puccinia recondita and 78% in the data set with Pyricularia oryzae (in vivo).

In data set [1] (setting [2]), `CCOC(=O)Nc1cc(-c2c(-c3ccc(F)cc3F)nn3c2OCCC3)ccn1` [Example 38] displayed a LogP of 1.72. The efficacy came to 89% in the data set with Uromyces appendiculatus, 95% in the data set on Pyrenophora teres (in vivo), 90% in the data set on Puccinia recondita and 94% in the data set on Pyricularia oryzae (in vivo).

In the case of `O=C(CCc1ccccc1)Nc1cc(-c2c(-c3ccc(F)cc3)nn3c2OCCC3)ccn1` [Example 29], the LogP in data set [1] (setting [2]) is on record as 2.2. In addition, the efficacy in the data set on Uromyces appendiculatus worked out at 94%; in the data set on Pyrenophora teres (in vivo), 70%; with Puccinia recondita it was 95%; in the data set with Pyricularia oryzae (in vivo), 94%.

In data set [1] (setting [2]), `CC(C(=O)Nc1cc(-c2c(-c3ccc(F)cc3F)nn3c2OCCC3)ccn1)c1ccc(F)cc1` (stereo not drawn) [Example 47] gave a LogP of 2.48. Moreover, the efficacy turned out to be 92% in the data set on Uromyces appendiculatus, 80% with Pyrenophora teres (in vivo), 95% with Puccinia recondita and 89% with Pyricularia oryzae (in vivo).

As for `O=C(CCc1ccccc1)Nc1cc(-c2c(-c3ccccc3)nn3c2OCCC3)ccn1` [Example 15], the LogP in data set [1] (setting [2]) came out at 2.04. The efficacy in the data set with Uromyces appendiculatus is on record as 83%; with Pyrenophora teres (in vivo) it was 95%; with Puccinia recondita it was 95%; in the data set on Pyricularia oryzae (in vivo) it was 94%.

Take `C[Si]1(C)COc2c(-c3ccnc(NC(=O)C4CC4)c3)c(-c3ccsc3)nn2C1` [Example 102]: the LogP in data set [1] (setting [3]) turned out to be 1.97. For the same compound, the efficacy was found to be 80% with Leptosphaeria nodorum, 100% with Pyrenophora teres (in vivo) and 70% with Pyricularia oryzae (in vivo).

For the compound `CC(=O)N(C(C)=O)c1cc(-c2c(-c3ccc(F)cc3)nn3cccnc23)ccn1` [Example 83], the LogP in data set [1] (setting [3]) is 2.22. Besides, the efficacy in the data set with Sphaerotheca fuliginea (in vivo) is 90%; in the data set with Pyrenophora teres (in vivo), 80%.

Take `CC1(C#N)COc2c(Br)c(-c3ccc(F)cc3)nn2C1` (stereo not drawn) [[IV-11], 3-bromo-2-(4-fluorophenyl)-6-methyl-6,7-dihydro-5H-pyrazolo[5,1-b][1,3]oxazine-6-carbonitrile]: the chromatographic logP in data set [1] (pH 2.3, intermediates of formula [IV] and [XXXVII], HPLC, reverse phase C18, read-out: LogP (pH 2.3)) was found to be 2.94; in data set [1] (setting [5]), 2.94.
